Measurements as given in patent EP0232423A1, “CIRCULATION IMPROVING AGENT” (GRELAN PHARMACEUTICAL CO., LTD., priority 1985, dated 1987).
Where a name gives a salt, the structure may show the parent alone.

Columns and labels:
isolated basilar artery [1] = test: Relaxation of isolated basilar artery contracted by 50 mM KCl; type: cell-based, Mongrel dogs; conditions: Canis lupus familiaris, 50 mM KCl contraction
Description: (§1) Mongrel dogs of either sex (body weight 10-17 kg) were killed by bleeding under anesthetization with pentobarbital sodium (tradename: Nembutai ® Abbott Co., USA). Thereafter, the basilar and femoral arteries were extracted and attached blood and connective tissues were carefully removed in a dish filled with Krebs bicarbonate solution (composition: NaCl 117.7 mM, KC1 4.7 mM, CaCl2 2.5 mM, MgSo4 1.2 mM, glucose 10 mM, NaHCO3 24.4 mM). Thereafter, ring preparations were made therefrom. This preparation was suspended in a bathing tube of 10 ml filled with Krebs bicarbonate solution aerated with 95 % 02 and 5 % C02.
(§2) Then, samples of basilar and femoral arteries were contracted by application of 50 mM KC1. After confirming that the contraction was sustained, (a) compound (I) (erythro form) lactate, (b) compound (I) (threo form) lactate and (c) ifenprodil; [2-(4-benzyl- piperidino-l-(4-hydroxyphenyl)propane-l-ol] tartrate were, respectively, administered as test compounds and the dose-relaxation response was examined.
(§3) A strain gauge transducer (model SB-lT manufactured by Nihon Koden Co.) was employed for recording of change of tension and isometric contraction was recorded on a recorder (model QPD 53 made by Hitachi Ltd . ) .

isolated femoral artery [2] = test: Relaxation of isolated femoral artery contracted by 50 mM KCl; type: cell-based, Mongrel dogs; conditions: Canis lupus familiaris, 50 mM KCl contraction
Description: as §1, §2, §3

isolated coronary artery = test: Relaxation of isolated coronary artery; type: cell-based, Mongrel dogs; conditions: Canis lupus familiaris, read-out: ED50 (the source's name)
Description: as §1, §2, §3
Experiments were conducted in accordance with the method of Test Example 2 with use of the coronary artery in place of the basilar and femoral arteries. […]

isolated basilar artery [3] = test: Ca antagonistic action: Ca-induced contraction in K-depolarized basilar artery; type: cell-based, Mongrel dogs; conditions: Canis lupus familiaris, 0.25 h, 50 mM KCl, Ca-free bath, cumulative CaCl2, compound applied 15 minutes before, read-out: pA2 values on Ca-induced contraction in depolarized muscle by K (converted)
Description: (§4) The same measurements as in Test Example 2 were carried out using the isolated basilar artery and isolated femoral artery treated in accordance with the method of Test Example 2.
(§5) For examination of the Ca antagonistic action, the depolarization of both isolated arteries was induced with 50 mM KC1 in a bathing solution from which Ca had been removed and then CaCl2 was cumulatively applied thereto. As test compounds, (a) compound (I) (erythro form) lactate and (b) ifenprodil tartrate were applied at 15 minutes before addition of CaCl2.

isolated femoral artery [4] = test: Ca antagonistic action: Ca-induced contraction in K-depolarized femoral artery; type: cell-based, Mongrel dogs; conditions: Canis lupus familiaris, 0.25 h, 50 mM KCl, Ca-free bath, cumulative CaCl2, compound applied 15 minutes before, read-out: pA2 values on Ca-induced contraction in depolarized muscle by K (converted)
Description: as §4, §5

mice = test: Protective action on death caused by endotoxin shock; type: in vivo; conditions: for Number of survival after administration of endotoxin: of 15 (Compound (I)) or 14 (ifenprodil) animals
From the text: Compound (I) and ifenprodil tartrate were orally administered to mice and the protective action on death due to endotoxin shock was examined in accordance with a known method (Folia pharmacol. japon, vol. 86, page 17, 1985). The control group was drug-untreated.

platelets of rabbit = test: Fluidity of platelet membrane (fluorescence polarization); type: cell-based; parameters: Fluorescence polarization: unit not given here; conditions: for Fluorescence polarization: fluidity increases as value decreases
From the text: The activity of compound (I) (lactate) and ifenprodil tartrate against the fluidity of platelet membrane was examined according to a known method (Biochimica et Biophysica Acta, vol. 798, page 210, 1984) using platelets of rabbit and using n-butyl alcohol as a positive control.

α1-adrenoceptor = test: Antagonism of phenylephrine (α1-agonist) contraction in saphenous vein; type: cell-based, Mongrel dogs; conditions: α1 - agonist: phenylephrine; saphenous vein; 15 minutes treatment
From the text: (§6) In this experiment, phenylephrine and clonidine were used as al-agonist and a2-agonist, respectively, and these agonists were cumulatively applied to obtain a dose-response curve.

α2-adrenoceptor = test: Antagonism of clonidine (α2-agonist) contraction in saphenous vein; type: cell-based, Mongrel dogs; conditions: α2 - agonist: clonidine, competitive antagonism, 15 min
From the text: as §6

ddY male mice [5] = test: Ameliorative activity against damage of cerebral hypoxia (reduced pressure); type: in vivo
Description: Thirty mg/kg each of compound (I) (lactate) and ifenprodil tartrate and 16 mg/kg of phentolamine, which is an a-adrenoceptor blocker, were intraperitoneally administered to ddY male mice, respectively. […] Time from start of reduction of pressure until stop of respiration in the mice was measured. The control group was drug-untreated.

ddY male mice [6] = test: Prolongation of gasping time in complete cerebral ischemic (decapitated) animals; type: in vivo; conditions: for Ratio of time (%): prolongation as compared with the control group; for Duration time of gasping: decapitated after 30 minutes
Description: After 30 minutes from administration, the.mice were decapitated and the duration time of gasping was measured. The control group was drug-untreated.

isolated femoral artery [7] = test: K-induced 45Ca influx in isolated femoral artery; type: cell-based, Mongrel dogs; conditions: 10^-5 M + 50 mM KCl
From the text: (§7) Using the isolated basilar artery and femoral artery treated in accordance with Test Example 2, the activity of (a) compound (I) (lactate), (b) ifenprodil tartrate and (c) verapamil hydrochloride against ^45Ca influx and ^45Ca uptake were examined by the conventional method (J. Membran. Biol., vol. 59, page 19, 1981).

isolated femoral artery [8] = test: K-induced 45Ca uptake in isolated femoral artery; type: cell-based, Mongrel dogs; conditions: 50 mM KCl alone 586.0 ± 17.9
From the text: as §7

isolated basilar artery [9] = test: PGF2α-induced 45Ca uptake in isolated basilar artery; type: cell-based, Mongrel dogs; conditions: 10^-5 M + 10^-5 M PGF2α; PGF2α alone 166.2 ± 6.0
From the text: as §7

Q: Which inhibition at 50 µM (isolated basilar artery [1]; 5 x 10^-5 M, mean, n = 4 - 5) does the source give for `CC(C(O)c1ccc(O)cc1)N1CCC(Cc2ccccc2)CC1` (stereo not drawn) [Ifenprodil tartrate] here?
A: Its inhibition at 50 µM is 96.6%.

Q: What about the inhibition at 100 µM (isolated basilar artery [1]; 10^-4 M, mean, n = 4 - 5) of the same molecule?
A: Its inhibition at 100 µM is 100%.

Q: What about the inhibition at 10 µM (isolated basilar artery [1]; 10^-5 M, mean, n = 4 - 5) of the same molecule?
A: The inhibition at 10 µM was 44.1%.

Q: What about the inhibition at 1 µM (isolated basilar artery [1]; 10^-6 M, mean, n = 4 - 5) of the same molecule?
A: Its inhibition at 1 µM is 5.1%.

Q: What about the inhibition at 0.1 µM (isolated basilar artery [1]; 10^-7 M, mean, n = 4 - 5) of the same molecule?
A: Its inhibition at 0.1 µM is 0.9%.

Q: What about the EC50 (isolated basilar artery [1]; relaxation of isolated basilar artery, read-out: ED50 (the source's name)) of the same molecule?
A: The EC50 was 11 µM.

Q: What about the inhibition at 50 µM (isolated femoral artery [2]; 5 x 10^-5 M, mean, n = 4 - 5) of the same molecule?
A: The inhibition at 50 µM was 49.8%.

Q: What about the inhibition at 100 µM (isolated femoral artery [2]; 10^-4 M, mean, n = 4 - 5) of the same molecule?
A: Its inhibition at 100 µM is 75.9%.

Q: And the inhibition at 10 µM (isolated femoral artery [2]; 10^-5 M, mean, n = 4 - 5)?
A: The inhibition at 10 µM was 2.8%.

Q: And the inhibition at 1 µM (isolated femoral artery [2]; 10^-6 M, mean, n = 4 - 5)?
A: The inhibition at 1 µM was 0%.

Q: What about the inhibition at 0.1 µM (isolated femoral artery [2]; 10^-7 M, mean, n = 4 - 5) of the same molecule?
A: Its inhibition at 0.1 µM is 0%.

Q: And the EC50 (isolated femoral artery [2]; relaxation of isolated femoral artery, read-out: ED50 (the source's name))?
A: The EC50 was 52 µM.

Q: And the EC50 (isolated coronary artery)?
A: The EC50 was 26 µM.

Q: And the Kb (isolated basilar artery [3])?
A: Its Kb is 5.37 µM.

Q: What about the Kb (isolated femoral artery [4]) of the same molecule?
A: The Kb was 29.5 µM.

Q: And the “Number of survival after administration of endotoxin” value (“Number of survival” for short) (mice; 70 mg/kg oral, 18 hr)?
A: The value was 11.

Q: What about the “Number of survival” value (mice; 70 mg/kg oral, 20 hr) of the same molecule?
A: The value was 9.

Q: What about the “Number of survival” value (mice; 70 mg/kg oral, 22 hr) of the same molecule?
A: The value was 6.

Q: And the “Number of survival” value (mice; 70 mg/kg oral, 24 hr)?
A: Its value is 2.

Q: And the “Number of survival” value (mice; 70 mg/kg oral, 48 hr)?
A: Its value is 0.

Q: And the “Number of survival” value (mice; 200 mg/kg oral, 18 hr)?
A: The value was 11.

Q: What about the “Number of survival” value (mice; 200 mg/kg oral, 20 hr) of the same molecule?
A: Its value is 9.

Q: And the “Number of survival” value (mice; 200 mg/kg oral, 22 hr)?
A: The value was 7.

Q: What about the “Number of survival” value (mice; 200 mg/kg oral, 24 hr) of the same molecule?
A: Its value is 7.

Q: And the “Number of survival” value (mice; 200 mg/kg oral, 48 hr)?
A: The value was 5.

Q: And the “protective action on the death (endotoxin shock)” value (mice; oral, mice, compound (I) at 200 mg/kg)?
A: Its value is “no such effect”.

Q: What about the “effect on fluidity of platelet membrane” value (platelets of rabbit) of the same molecule?
A: The value was “no such activity”.

Q: And the Fluorescence polarization (platelets of rabbit; 1 µM)?
A: Its Fluorescence polarization is 7.

Q: What about the Fluorescence polarization (platelets of rabbit; 10 µM) of the same molecule?
A: The Fluorescence polarization was 13±7.

Q: What about the Fluorescence polarization (platelets of rabbit; 100 µM) of the same molecule?
A: The Fluorescence polarization was 3±3.

Q: And the pA2 value (α1-adrenoceptor)?
A: Its pA2 value is 8.22 ± 0.29.

Q: What about the pA2 value (α2-adrenoceptor) of the same molecule?
A: Its pA2 value is 8.31.

Q: What about the “Time required for stoppage of respiration” value (ddY male mice [5]; 30 mg/kg intraperitoneally, 30 minutes before, pressure reduced to 160 mmHg) of the same molecule?
A: Its value is 85.2 ± 4.1 s.

Q: What about the “effect on survival time (cerebral hypoxia)” value (ddY male mice [5]; i.p., 30 mg/kg compound (I) and ifenprodil tartrate, 16 mg/kg phentolamine) of the same molecule?
A: Its value is “substantially no effect”.

Q: What about the “Ratio of time (%)” value (ddY male mice [6]; 10 mg/kg i.p.) of the same molecule?
A: The value was 10.0%.

Q: And the “Duration time of gasping” value (ddY male mice [6]; 10 mg/kg intraperitoneally)?
A: Its value is 23.0 ± 0.5 s.

Q: And the “Ratio of time (%)” value (ddY male mice [6]; 30 mg/kg i.p.)?
A: Its value is 28.7%.

Q: What about the “Duration time of gasping” value (ddY male mice [6]; 30 mg/kg intraperitoneally) of the same molecule?
A: The value was 26.9 ± 1.2 s.

Q: And the “K-induced ^45Ca influx in isolated femoral artery” value (from here on “K-induced ^45Ca influx”) (isolated femoral artery [7]; pre-incubation 15 min, 50 mM KCl alone 94.6 ± 5.2)?
A: Its value is 99.8 ± 6.4 n mol/g wt. tissue.

Q: What about the “K-induced ^45Ca influx” value (isolated femoral artery [7]; pre-incubation 45 min, 50 mM KCl alone 98.4 ± 6.8) of the same molecule?
A: The value was 59.0 ± 9.8 n mol/g wt. tissue.

Q: And the “K-induced ^45Ca influx” value (isolated femoral artery [7]; pre-incubation 135 min)?
A: Its value is 64.8 ± 7.5 n mol/g wt. tissue.

Q: What about the “K-induced ^45Ca uptake in isolated femoral artery” value (“K-induced ^45Ca uptake” for short) (isolated femoral artery [8]; 5 x 10^-5 M + 50 mM KCl) of the same molecule?
A: Its value is 471.2 ± 40.0 n mol/g wt. tissue.

Q: What about the “K-induced ^45Ca uptake” value (isolated femoral artery [8]; 10^-4 M + 50 mM KCl) of the same molecule?
A: The value was 486.5 ± 20.9 n mol/g wt. tissue.

Q: And the “K-induced ^45Ca uptake” value (isolated femoral artery [8]; 10^-5 M + 50 mM KCl)?
A: Its value is 635.2 ± 41.4 n mol/g wt. tissue.

Q: What about the “PGF2α-induced ^45Ca uptake in isolated basilar artery” value (isolated basilar artery [9]) of the same molecule?
A: Its value is 125.7 ± 5.6 n mol/g wt. tissue.
